Measurements taken from patent US8017557B2, “Benzodioxole derivatives as modulators of proteolytic activity in plants” (Endura S.p.A., priority 2002, dated 2011).
Read-outs that look alike come from different tables or passages of the source.

System: endopeptidase activity in cotton sprouts
Settings: for absorbance reading, Mean, Cotton Sprouts Treated with PBO / absorbance reading, replicate 1, Cotton Sprouts Treated with PBO / absorbance reading, replicate 2, Cotton Sprouts Treated with PBO / absorbance reading, replicate 3, Cotton Sprouts Treated with PBO / Endopeptidase Activity (U × 10^3), Cotton Sprouts Treated with PBO: pH 7.7; for absorbance reading, Mean, Cotton Sprouts Treated with PBO / absorbance reading, replicate 1, Cotton Sprouts Treated with PBO / absorbance reading, replicate 2, Cotton Sprouts Treated with PBO / absorbance reading, replicate 3, Cotton Sprouts Treated with PBO / % difference of endopeptidase activity, treated vs untreated / Endopeptidase Activity (U × 10^3), Cotton Sprouts Treated with PBO: 4 days of germination, PBO 1% w/v; for Δ U (endopeptidase activity, untreated vs PBO treated): same scale as Activity (U × 10^3)
Experimental: The extent of hydrolytic activity in cotton sprouts was measured at 15′, 30′, 60′, 90′ and 120′ after solubilization of the acetonic powder in aqueous buffer at pH 7.7 by determining the absorbance at 280 nm in a quartz cuvette after protein precipitation with TCA and removal by centrifugation. Each series of analysis was performed in […]. The comparison between the values of […] activity in treated (dark grey) and untreated (light grey) samples was done using the average value of each series of analysis. Abscissa: time (min); ordinate: Abs 280 nm.
The basic idea was to “freeze” the physiologic protein hydrolysis enzymatic activity and to re-establish the process simply solubilizing the proteolytic enzymatic system in suitable buffers, which were 0.1 M phosphate pH 6.5 and 0.1 M tris-HCl pH 7.7, for evaluating both the carboxypeptidase and the endopeptidase activities according to the method described by Hile et al. 1972; Funkhouser et al. 1980.
Cotton seeds (cv. Carmela) were obtained from “Semillas Battle”, Barcelona (E).
The seeds were previously rinsed in tap water and then imbibed with aeration in distilled water over night (Funkhouser, E. A. et al., Z. Pflanzenphysiol., 1980, 100, 319-324).
The plastic boxes containing seeds were covered by a plastic film and placed in a germinator in the dark for 4 days at 30° C. as described in Hile, J. N. and Dure, L. S. J. Biol. Chem., 1972, 247: 5034-5040.
The cotton sprouts of 4 days were collected and frozen in liquid nitrogen and freeze dried (Hile et al. 1972). After this process, the material was crushed in a pestle and freed from fibrous material and settled up to obtain a pretty homogeneous meal of about 0.5 mesh.
The meals were defatted using n-hexane (1:10 w/v) at room temperature and then treated with acetone at −20° C. to remove pigments and polyphenolic compounds, in this case mainly gossypol. The powders obtained were stored in a dry box at room temperature.
The acetonic powder (30 mg) was suspended in buffer (4 ml) and incubated at 37° C. for 15′, 30, 60, 90, 120 minutes. The proteolysis was stopped adding 1 ml of 12% trichloroacetic acid. In this case the buffer used was 0.1 M phosphate pH 7.7 (Funkhouser et al. 1980). The control was a suspension of the same sample prepared in the same way but was immediately deactivated, adding up 1 ml of trichloroacetic acid. The trials with treated and untreated samples were carried out at the same time.
Proteins were precipitated with trichloroacetic acid and then removed by filtration, before with Whatman paper n. 4 and then by micro-filtration (Orange Scientific Braine I'Alleud, Belgium (Ø0.2 μm)). Finally, the hydrolyzed protein samples were analyzed as clear solutions by determining the absorbance at 280 nm in a quartz cuvette.
Each series of analysis was performed threefold. The comparison between the values of endopeptidase activity of treated and untreated samples was done using the average value of each series of analysis.

[1] = Time 0 (immediately deactivated)

`CCCCOCCOCCOCc1cc2c(cc1CCC)OCO2` [PBO, 5-[[2-(2-Butoxyethoxy)ethoxy]methyl]-6-propyl-1,3-benzodioxole] was tested, and the “endopeptidase activity in PBO treated cotton sprouts” value (FIG. 5, treated vs untreated cotton sprouts) was “lower than in the untreated ones”, the “absorbance reading, Mean, Cotton Sprouts Treated with PBO” value (from here on “absorbance reading, Mean”) [1] was 868.00 and the “absorbance reading, replicate 1, Cotton Sprouts Treated with PBO” value [1] was 821.00. The “absorbance reading, replicate 2, Cotton Sprouts Treated with PBO” value [1] was 897.00, the “absorbance reading, replicate 3, Cotton Sprouts Treated with PBO” value [1] was 886.00 and the “% difference of endopeptidase activity, treated vs untreated” value (“% difference of endopeptidase activity” for short) (Time 15′) was 47.86%. The “Endopeptidase Activity (U × 10^3), Cotton Sprouts Treated with PBO” value (“Endopeptidase Activity … with PBO” for short) (Time 15′) was 50.67 U × 10^3, the “absorbance reading, Mean” value (Time 15′) was 918.67 and the “absorbance reading, replicate 1, Cotton Sprouts Treated with PBO” value (Time 15′) was 965.00. For the same compound, the “absorbance reading, replicate 2, Cotton Sprouts Treated with PBO” value (Time 15′) was 876.00, the “absorbance reading, replicate 3, Cotton Sprouts Treated with PBO” value (Time 15′) was 915.00 and the “Δ U (endopeptidase activity, untreated vs PBO treated)” value (Time 15′) was 46.50 U. The “% difference of endopeptidase activity” value (Time 30′) was 29.00%, the “Endopeptidase Activity … with PBO” value (Time 30′) was 82.00 U × 10^3 and the “absorbance reading, Mean” value (Time 30′) was 950.00. The “absorbance reading, replicate 1, Cotton Sprouts Treated with PBO” value (Time 30′) was 965.00, the “absorbance reading, replicate 2, Cotton Sprouts Treated with PBO” value (Time 30′) was 935.00 and the “absorbance reading, replicate 3, Cotton Sprouts Treated with PBO” value (Time 30′) was 950.00. For the same compound, the “Δ U (endopeptidase activity, untreated vs PBO treated)” value (Time 30′) was 33.50 U, the “% difference of endopeptidase activity” value (Time 60′) was 12.86% and the “Endopeptidase Activity … with PBO” value (Time 60′) was 148.00 U × 10^3. For the same compound, the “absorbance reading, Mean” value (Time 60′) was 1016.00, the “absorbance reading, replicate 1, Cotton Sprouts Treated with PBO” value (Time 60′) was 1038.00 and the “absorbance reading, replicate 2, Cotton Sprouts Treated with PBO” value (Time 60′) was 1038.00. For the same compound, the “absorbance reading, replicate 3, Cotton Sprouts Treated with PBO” value (Time 60′) was 972.00, the “Δ U (endopeptidase activity, untreated vs PBO treated)” value (Time 60′) was 21.83 U and the “% difference of endopeptidase activity” value (Time 90′) was 28.80%. For the same compound, the “Endopeptidase Activity … with PBO” value (Time 90′) was 127.33 U × 10^3, the “absorbance reading, Mean” value (Time 90′) was 995.33 and the “absorbance reading, replicate 1, Cotton Sprouts Treated with PBO” value (Time 90′) was 1015.00. For the same compound, the “absorbance reading, replicate 2, Cotton Sprouts Treated with PBO” value (Time 90′) was 991.00, the “absorbance reading, replicate 3, Cotton Sprouts Treated with PBO” value (Time 90′) was 980.00 and the “Δ U (endopeptidase activity, untreated vs PBO treated)” value (Time 90′) was 51.50 U. For the same compound, the “% difference of endopeptidase activity” value (Time 120′) was 22.48%, the “Endopeptidase Activity … with PBO” value (Time 120′) was 129.33 U × 10^3 and the “absorbance reading, Mean” value (Time 120′) was 997.33. For the same compound, the “absorbance reading, replicate 1, Cotton Sprouts Treated with PBO” value (Time 120′) was 1017.00, the “absorbance reading, replicate 2, Cotton Sprouts Treated with PBO” value (Time 120′) was 960.00 and the “absorbance reading, replicate 3, Cotton Sprouts Treated with PBO” value (Time 120′) was 1015.00. For the same compound, the “Δ U (endopeptidase activity, untreated vs PBO treated)” value (Time 120′) was 37.50 U.
